Laboratory results from article PMC4338257 (Drug Design, Development and Therapy, 2015).

Target: human ether-à-go-go-related gene (hERG) channel (Kv11.1) (Homo sapiens, UniProt Q12809)
Assay: whole-cell patch clamp in HEK […] cells stably expressing hERG
Type: cell-based

Sequence of human ether-à-go-go-related gene (hERG) channel (Kv11.1) (Q12809 whole entry): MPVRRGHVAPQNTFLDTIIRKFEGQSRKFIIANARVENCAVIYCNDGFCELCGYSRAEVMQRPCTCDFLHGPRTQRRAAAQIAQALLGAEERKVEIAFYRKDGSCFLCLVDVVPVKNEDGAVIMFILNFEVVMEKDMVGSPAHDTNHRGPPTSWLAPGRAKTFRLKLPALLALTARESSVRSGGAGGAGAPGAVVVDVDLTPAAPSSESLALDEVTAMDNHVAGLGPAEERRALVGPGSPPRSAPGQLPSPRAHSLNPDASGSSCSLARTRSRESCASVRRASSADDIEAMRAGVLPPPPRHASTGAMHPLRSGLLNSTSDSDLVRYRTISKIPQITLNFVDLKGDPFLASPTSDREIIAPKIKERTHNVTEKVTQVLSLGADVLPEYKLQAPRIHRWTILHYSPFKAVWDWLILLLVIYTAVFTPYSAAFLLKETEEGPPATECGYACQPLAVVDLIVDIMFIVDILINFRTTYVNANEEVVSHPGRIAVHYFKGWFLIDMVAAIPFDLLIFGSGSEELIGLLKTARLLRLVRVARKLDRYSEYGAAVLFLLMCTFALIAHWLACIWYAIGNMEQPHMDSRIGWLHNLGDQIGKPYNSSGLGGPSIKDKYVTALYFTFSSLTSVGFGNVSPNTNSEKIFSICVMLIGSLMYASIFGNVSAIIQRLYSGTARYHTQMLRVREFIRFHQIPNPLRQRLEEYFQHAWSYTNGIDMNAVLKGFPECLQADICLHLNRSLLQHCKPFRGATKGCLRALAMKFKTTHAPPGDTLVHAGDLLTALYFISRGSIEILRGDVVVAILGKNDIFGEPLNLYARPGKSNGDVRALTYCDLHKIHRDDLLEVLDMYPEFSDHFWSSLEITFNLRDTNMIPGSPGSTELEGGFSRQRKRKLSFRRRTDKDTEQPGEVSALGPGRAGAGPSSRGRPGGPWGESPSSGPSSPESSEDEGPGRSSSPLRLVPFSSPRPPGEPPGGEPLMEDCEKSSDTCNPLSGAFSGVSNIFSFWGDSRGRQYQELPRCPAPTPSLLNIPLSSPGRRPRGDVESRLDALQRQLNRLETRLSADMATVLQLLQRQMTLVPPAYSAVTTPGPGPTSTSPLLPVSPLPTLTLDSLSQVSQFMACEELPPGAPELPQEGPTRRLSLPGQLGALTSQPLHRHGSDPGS

## Cc1ncc2n1-c1ccc(Cl)cc1C(c1ccccc1F)=NC2 [midazolam]
  IC50: 13.6 µM
